Key:
human MDR1 [1] = target: T1, human MDR1 (Homo sapiens, UniProt P08183); test: Bidirectional transport assay, efflux ratio in Abcb1KO-MDCKII hMDR1 cells; details: human, MDCK-MDR1, pH 7.4
Experimental: (§1) Eluent A consisted of 0.1% formic acid in water, eluent B consisted of 0.1% formic acid in acetonitrile. Then, 10 µL samples were injected into the HPLC-MS/MS system. Mass spectrometric detection was performed in SRM mode, and ion transitions for each analyte were optimized during method development. Samples were analyzed in pools, with each pool containing three to four analytes.

rat Mdr1a [2] = target: T2, rat Mdr1a (Rattus norvegicus, UniProt Q6PSM0); test: Inhibition of 3H-digoxin or 3H-quinidine bidirectional transport in rMDR1 cells; type: cell-based; set-up: rat Mdr1a (NM_133401.1); expressed in transfected cells; host or cells: Abcb1KO-MDCKII (canine kidney, endogenous Abcb1 knocked out), transduced, single-cell clone; details: IC50 from ER
T2 sequence (Q6PSM0 1-1272): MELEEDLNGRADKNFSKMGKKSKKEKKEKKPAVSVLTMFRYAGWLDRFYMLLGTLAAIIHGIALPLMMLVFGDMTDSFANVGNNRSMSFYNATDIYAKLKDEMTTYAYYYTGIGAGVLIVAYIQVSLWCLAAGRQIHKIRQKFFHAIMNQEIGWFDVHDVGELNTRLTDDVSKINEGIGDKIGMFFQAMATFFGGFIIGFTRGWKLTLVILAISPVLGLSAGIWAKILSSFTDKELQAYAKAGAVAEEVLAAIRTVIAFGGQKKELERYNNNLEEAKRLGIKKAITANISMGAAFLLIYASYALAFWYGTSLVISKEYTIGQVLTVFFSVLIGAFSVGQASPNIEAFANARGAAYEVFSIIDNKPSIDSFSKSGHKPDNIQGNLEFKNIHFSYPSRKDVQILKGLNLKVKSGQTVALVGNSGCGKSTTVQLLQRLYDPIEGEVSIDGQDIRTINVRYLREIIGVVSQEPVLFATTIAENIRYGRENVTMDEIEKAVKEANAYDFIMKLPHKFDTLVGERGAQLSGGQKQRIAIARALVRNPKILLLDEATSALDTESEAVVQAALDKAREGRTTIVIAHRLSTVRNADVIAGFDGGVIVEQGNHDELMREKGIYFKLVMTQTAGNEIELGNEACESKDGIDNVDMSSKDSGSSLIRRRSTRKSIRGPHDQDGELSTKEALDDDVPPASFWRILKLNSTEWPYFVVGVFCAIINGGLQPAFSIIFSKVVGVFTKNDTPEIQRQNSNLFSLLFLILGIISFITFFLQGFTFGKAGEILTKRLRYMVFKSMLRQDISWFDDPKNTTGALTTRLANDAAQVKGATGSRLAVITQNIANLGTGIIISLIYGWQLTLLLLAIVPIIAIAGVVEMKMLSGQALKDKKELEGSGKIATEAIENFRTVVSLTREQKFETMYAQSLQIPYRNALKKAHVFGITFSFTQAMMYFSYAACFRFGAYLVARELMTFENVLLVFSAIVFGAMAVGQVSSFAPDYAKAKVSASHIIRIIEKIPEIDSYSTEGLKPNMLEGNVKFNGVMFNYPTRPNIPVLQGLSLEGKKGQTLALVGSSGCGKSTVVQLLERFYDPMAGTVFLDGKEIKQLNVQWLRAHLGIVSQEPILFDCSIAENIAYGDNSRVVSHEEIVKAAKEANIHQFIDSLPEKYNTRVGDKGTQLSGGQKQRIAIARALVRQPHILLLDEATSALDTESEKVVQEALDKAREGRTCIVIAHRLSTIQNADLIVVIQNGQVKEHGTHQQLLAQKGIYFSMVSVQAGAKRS

mouse Mdr1a [3] = target: T3, mouse Mdr1a (Mus musculus, UniProt P21447); test: Inhibition of 3H-digoxin or 3H-quinidine bidirectional transport in mMDR1 cells; type: cell-based; set-up: mouse Mdr1a (NM_011076.3); expressed in transfected cells; host or cells: Abcb1KO-MDCKII (canine kidney, endogenous Abcb1 knocked out), transduced, single-cell clone; details: IC50 from ER
T3 sequence (P21447 whole entry): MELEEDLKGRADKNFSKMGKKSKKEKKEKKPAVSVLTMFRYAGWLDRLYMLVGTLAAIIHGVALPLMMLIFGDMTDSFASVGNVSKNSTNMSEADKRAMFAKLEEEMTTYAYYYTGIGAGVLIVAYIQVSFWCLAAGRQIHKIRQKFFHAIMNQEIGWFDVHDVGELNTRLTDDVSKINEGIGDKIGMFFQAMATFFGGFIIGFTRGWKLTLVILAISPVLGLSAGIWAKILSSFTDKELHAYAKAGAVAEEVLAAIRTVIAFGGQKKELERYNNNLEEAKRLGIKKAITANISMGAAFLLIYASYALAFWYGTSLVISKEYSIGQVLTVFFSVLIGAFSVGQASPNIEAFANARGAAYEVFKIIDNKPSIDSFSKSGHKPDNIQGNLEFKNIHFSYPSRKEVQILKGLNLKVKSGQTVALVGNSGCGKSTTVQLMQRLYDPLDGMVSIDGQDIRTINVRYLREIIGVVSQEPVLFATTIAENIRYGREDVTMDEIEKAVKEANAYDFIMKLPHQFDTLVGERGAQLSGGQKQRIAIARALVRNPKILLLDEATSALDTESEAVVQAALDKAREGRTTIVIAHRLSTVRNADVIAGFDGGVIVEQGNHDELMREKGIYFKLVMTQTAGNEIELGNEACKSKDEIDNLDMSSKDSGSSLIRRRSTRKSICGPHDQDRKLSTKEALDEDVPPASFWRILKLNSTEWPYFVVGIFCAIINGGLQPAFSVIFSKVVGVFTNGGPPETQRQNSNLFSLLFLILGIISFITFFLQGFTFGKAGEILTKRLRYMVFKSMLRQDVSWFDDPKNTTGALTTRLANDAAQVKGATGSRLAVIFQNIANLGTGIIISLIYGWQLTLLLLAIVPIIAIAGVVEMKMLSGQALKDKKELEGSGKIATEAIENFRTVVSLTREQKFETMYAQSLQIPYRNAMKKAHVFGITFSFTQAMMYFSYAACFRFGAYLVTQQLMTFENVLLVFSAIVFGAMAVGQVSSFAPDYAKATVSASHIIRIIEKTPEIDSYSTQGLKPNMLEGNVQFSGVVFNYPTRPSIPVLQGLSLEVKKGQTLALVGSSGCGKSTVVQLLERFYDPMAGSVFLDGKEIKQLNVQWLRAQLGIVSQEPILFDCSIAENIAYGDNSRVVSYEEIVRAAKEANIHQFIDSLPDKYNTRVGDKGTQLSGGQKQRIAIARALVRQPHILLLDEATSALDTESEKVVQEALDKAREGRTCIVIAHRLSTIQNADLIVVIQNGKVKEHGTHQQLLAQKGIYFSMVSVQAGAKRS

mouse Mdr1a [4] = target: T3, mouse Mdr1a; test: Bidirectional transport assay, efflux ratio in Abcb1KO-MDCKII mMDR1 cells; details: mouse, pH 7.4
Experimental: as §1

cynomolgus monkey Mdr1 [5] = target: T4, cynomolgus monkey Mdr1 (Macaca fascicularis, UniProt Q8HZQ6); test: Bidirectional transport assay, efflux ratio in Abcb1KO-MDCKII cyMDR1 cells; details: cynomolgus monkey, pH 7.4
T4 sequence (Q8HZQ6 1-1283): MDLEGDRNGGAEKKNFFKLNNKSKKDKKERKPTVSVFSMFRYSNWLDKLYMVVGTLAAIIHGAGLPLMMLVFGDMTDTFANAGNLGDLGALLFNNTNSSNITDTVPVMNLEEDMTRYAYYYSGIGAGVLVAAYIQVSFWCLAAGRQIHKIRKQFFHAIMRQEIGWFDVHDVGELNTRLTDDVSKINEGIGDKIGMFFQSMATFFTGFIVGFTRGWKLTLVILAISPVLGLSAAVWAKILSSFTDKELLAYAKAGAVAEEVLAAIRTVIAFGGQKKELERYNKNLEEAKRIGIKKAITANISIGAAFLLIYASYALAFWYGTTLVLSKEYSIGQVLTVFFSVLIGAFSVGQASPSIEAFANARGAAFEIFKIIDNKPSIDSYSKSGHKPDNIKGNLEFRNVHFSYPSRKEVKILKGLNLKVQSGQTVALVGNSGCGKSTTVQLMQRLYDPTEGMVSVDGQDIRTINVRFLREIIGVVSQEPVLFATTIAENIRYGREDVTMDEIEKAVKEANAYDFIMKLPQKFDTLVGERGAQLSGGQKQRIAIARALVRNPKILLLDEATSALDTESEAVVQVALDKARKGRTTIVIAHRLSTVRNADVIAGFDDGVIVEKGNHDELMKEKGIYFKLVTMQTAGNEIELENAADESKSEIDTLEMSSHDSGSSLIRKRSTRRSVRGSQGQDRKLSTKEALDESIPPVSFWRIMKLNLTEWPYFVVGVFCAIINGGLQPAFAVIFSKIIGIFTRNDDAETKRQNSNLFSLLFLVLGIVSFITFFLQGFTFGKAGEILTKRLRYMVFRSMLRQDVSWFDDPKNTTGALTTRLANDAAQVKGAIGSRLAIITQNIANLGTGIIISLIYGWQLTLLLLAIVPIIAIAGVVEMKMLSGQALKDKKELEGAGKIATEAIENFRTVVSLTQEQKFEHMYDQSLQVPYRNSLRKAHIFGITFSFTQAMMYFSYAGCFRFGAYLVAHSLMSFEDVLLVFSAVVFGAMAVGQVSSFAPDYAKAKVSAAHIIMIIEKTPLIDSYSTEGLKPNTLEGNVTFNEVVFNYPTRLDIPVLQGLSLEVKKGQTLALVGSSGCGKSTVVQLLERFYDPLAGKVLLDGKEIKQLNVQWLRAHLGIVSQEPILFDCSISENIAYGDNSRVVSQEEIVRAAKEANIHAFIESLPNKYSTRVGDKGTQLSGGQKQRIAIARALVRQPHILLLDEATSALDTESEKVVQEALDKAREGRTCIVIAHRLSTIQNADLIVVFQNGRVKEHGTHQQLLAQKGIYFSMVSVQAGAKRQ
Experimental: as §1

cynomolgus monkey Mdr1 [6] = target: T4, cynomolgus monkey Mdr1; test: Inhibition of 3H-digoxin or 3H-quinidine bidirectional transport in cyMDR1 cells; details: 60 min, IC50 from ER; for IC50: Inhibition of quinidine transport IC50±SD, cyMDR1, probe 3H-quinidine 0.1 µM
human MDR1 [7] = target: T1, human MDR1; test: Inhibition of 3H-digoxin or 3H-quinidine bidirectional transport in hMDR1 cells; details: IC50 from ER
[8] = Bidirectional transport assay, efflux ratio in Abcb1KO-MDCKII-Mock control cells; details: dog, MDCK, pH 7.4
Experimental: as §1

human BCRP = target: T5, human BCRP (Homo sapiens, UniProt Q9UNQ0); test: Bidirectional transport assay, efflux ratio in MDCKII-BCRP cells; details: human, pH 7.4
T5 sequence (Q9UNQ0 1-655): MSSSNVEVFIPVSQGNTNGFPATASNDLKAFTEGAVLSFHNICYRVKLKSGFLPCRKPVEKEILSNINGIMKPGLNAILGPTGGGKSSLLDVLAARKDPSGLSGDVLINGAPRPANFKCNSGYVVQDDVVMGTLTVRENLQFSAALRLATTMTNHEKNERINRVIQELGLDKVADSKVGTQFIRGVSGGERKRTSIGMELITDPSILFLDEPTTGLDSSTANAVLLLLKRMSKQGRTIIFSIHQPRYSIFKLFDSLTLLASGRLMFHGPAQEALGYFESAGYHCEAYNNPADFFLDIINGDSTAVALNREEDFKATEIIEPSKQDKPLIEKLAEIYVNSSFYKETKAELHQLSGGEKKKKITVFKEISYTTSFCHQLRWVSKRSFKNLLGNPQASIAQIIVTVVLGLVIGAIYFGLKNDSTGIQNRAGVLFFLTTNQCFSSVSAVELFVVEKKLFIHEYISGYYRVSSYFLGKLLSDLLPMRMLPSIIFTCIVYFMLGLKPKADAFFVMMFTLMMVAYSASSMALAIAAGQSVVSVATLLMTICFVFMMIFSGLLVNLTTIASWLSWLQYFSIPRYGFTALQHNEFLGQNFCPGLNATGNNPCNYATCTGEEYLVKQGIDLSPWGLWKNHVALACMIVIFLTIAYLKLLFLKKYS
Experimental: as §1

cynomolgus monkey Mdr1 [9] = target: T4, cynomolgus monkey Mdr1; test: cell-based
rat Mdr1a [10] = target: T2, rat Mdr1a; test: Bidirectional transport assay, efflux ratio in Abcb1KO-MDCKII rMDR1 cells; details: rat, pH 7.4
Experimental: as §1

[11] = Inhibition of digoxin transport IC50±SD, rMDR1, probe 3H-digoxin 1 µM, 120 min
[12] = Inhibition of quinidine transport IC50±SD, rMDR1, probe 3H-quinidine 1 µM, 30 min
[13] = Inhibition of digoxin transport IC50±SD, mMDR1, probe 3H-digoxin 1 µM, 120 min
[14] = Inhibition of quinidine transport IC50±SD, mMDR1, probe 3H-quinidine 1 µM, 60 min
[15] = Inhibition of digoxin transport IC50±SD, hMDR1, probe 3H-digoxin 1 µM, 120 min
[16] = Inhibition of quinidine transport IC50±SD, hMDR1, probe 3H-quinidine 1 µM, 60 min
[17] = probe 3H-quinidine 1 µM, 60 min

T1 sequence (P08183 whole entry): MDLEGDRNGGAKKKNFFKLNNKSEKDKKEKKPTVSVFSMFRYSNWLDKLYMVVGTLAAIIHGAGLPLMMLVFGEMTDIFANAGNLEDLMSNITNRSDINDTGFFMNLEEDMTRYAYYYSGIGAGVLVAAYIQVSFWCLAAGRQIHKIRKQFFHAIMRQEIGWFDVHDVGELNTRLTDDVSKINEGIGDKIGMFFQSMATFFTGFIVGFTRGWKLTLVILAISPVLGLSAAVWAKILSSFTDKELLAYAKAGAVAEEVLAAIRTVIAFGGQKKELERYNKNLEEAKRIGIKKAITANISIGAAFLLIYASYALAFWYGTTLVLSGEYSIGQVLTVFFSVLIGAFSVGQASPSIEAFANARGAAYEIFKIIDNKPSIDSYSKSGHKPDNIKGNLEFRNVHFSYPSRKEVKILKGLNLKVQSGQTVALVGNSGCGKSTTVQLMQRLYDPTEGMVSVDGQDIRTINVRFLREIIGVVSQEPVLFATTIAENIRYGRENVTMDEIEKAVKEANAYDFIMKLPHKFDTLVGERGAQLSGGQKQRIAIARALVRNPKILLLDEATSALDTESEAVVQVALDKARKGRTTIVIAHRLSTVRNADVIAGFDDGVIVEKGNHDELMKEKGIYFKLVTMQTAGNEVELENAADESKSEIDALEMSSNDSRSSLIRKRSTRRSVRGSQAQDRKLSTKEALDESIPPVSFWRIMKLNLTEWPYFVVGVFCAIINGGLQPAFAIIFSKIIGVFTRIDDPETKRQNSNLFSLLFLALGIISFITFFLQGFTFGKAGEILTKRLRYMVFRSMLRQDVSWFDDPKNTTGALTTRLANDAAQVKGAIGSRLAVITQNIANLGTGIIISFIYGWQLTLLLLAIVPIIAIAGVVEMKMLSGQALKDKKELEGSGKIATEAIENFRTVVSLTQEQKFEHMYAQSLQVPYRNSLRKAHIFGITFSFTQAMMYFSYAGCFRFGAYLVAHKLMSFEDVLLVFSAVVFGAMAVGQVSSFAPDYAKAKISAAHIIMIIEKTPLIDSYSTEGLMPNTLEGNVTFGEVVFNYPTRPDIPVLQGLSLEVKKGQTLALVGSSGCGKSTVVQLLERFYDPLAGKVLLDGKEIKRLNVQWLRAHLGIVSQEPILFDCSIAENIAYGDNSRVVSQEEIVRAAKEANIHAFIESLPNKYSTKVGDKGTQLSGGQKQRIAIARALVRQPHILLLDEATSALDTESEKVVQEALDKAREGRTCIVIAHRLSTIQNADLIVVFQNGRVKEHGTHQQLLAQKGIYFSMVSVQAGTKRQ

| Structure (SMILES) | IC50 (rat Mdr1a [2]; [11]) [µM] | IC50 (rat Mdr1a [2]; [12]) [µM] | IC50 (mouse Mdr1a [3]; [13]) [nM] | IC50 (mouse Mdr1a [3]; [14]) [nM] | IC50 (cynomolgus monkey Mdr1 [6]) [µM] | IC50 (human MDR1 [7]; [15]) [µM] | IC50 (human MDR1 [7]; [16]) [µM] | IC50 (cynomolgus monkey Mdr1 [9]) [µM] | other results |
| --- | --- | --- | --- | --- | --- | --- | --- | --- | --- |
| COc1ccccc1OCCNCC(O)COc1cccc2[nH]c3ccccc3c12 (stereo not drawn) [Carvedilol] | 4.22 ± 1 | 1.01 ± 0.13 | 2000 ± 550 | 1640 ± 900 | 1.02 ± 0.79 | 19.1 ± 7.45 | 0.41 ± 0.24 | 1.55 ± 0.59 | efflux ratio at 120 min, 1 µM (human MDR1 [1]): 14.5 ± 0.62; efflux ratio at 120 min, 1 µM (mouse Mdr1a [4]): 1.94 ± 0.21; efflux ratio at 120 min, 1 µM (cynomolgus monkey Mdr1 [5]): 1.12 ± 0.06; efflux ratio at 120 min, 1 µM [8]: 0.62 ± 0.04; efflux ratio at 120 min, 1 µM (human BCRP): 2.38 ± 0.23; efflux ratio at 120 min, 1 µM (rat Mdr1a [10]): 2.13 ± 0.08 |
| COc1cc2c(cc1OC)CN(CCc1ccc(NC(=O)c3cccc4c(=O)c5cccc(OC)c5[nH]c34)cc1)CC2 [Elacridar] | 0.32 ± 0.15 | 0.06 | 100 ± 70 | 200 ± 40 | 0.11 ± 0.08 | – | – | 0.09 ± 0.03 | – |
| CCOC(=O)C1=C(C)NC(C)=C(C(=O)OC)C1c1cccc(Cl)c1Cl (stereo not drawn) [Felodipine] | > 100 | 40.6 ± 7.71 | 28600 ± 7950 | > 100000 | 50.7 ± 19.7 | – | – | 12.4 ± 5.74 | – |
| COC(=O)C1=C(C)NC(C)=C(C(=O)OC(C)C)C1c1cccc2nonc12 (stereo not drawn) [Isradipine] | 15.2 ± 2.84 | 13.6 ± 9.37 | 5280 ± 2940 | 19300 ± 3750 | 19.3 ± 5.76 | > 50 | 2.07 ± 1.28 | 10.6 ± 4.73 | – |
| CCC(C)n1ncn(-c2ccc(N3CCN(c4ccc(OCC5COC(Cn6cncn6)(c6ccc(Cl)cc6Cl)O5)cc4)CC3)cc2)c1=O (stereo not drawn) [Itraconazole] | 4.41 ± 1.05 | 0.15 ± 0.07 | 1390 ± 500 | 480 ± 110 | 0.32 ± 0.12 | – | – | 0.36 ± 0.19 | – |
| COCC(=O)O[C@]1(CCN(C)CCCc2nc3ccccc3[nH]2)CCc2cc(F)ccc2[C@@H]1C(C)C [Mibefradil] | 7.42 ± 2.76 | 1.11 ± 0.21 | 7150 ± 4580 | – | 3.61 ± 2.04 | – | – | 4.84 ± 1.82 | – |
| CCOC(=O)C1=C(C)NC(C)=C(C(=O)OC)C1c1cccc([N+](=O)[O-])c1 (stereo not drawn) [Nitrendipine] | 4.02 ± 1.64 | 6.34 ± 2.68 | > 50000 | 15700 ± 5680 | 17.5 ± 4.96 | > 50 | > 50 | 3.15 ± 1.7 | – |
| C=C[C@H]1C[N@@]2CC[C@H]1C[C@@H]2[C@@H](O)c1ccnc2ccc(OC)cc12 [Quinidine] | 2.93 ± 1.43 | – | 15000 ± 4060 | – | – | – | – | – | – |
| CC(C)(C)NC(=O)[C@@H]1C[C@@H]2CCCC[C@@H]2CN1C[C@@H](O)[C@H](Cc1ccccc1)NC(=O)[C@H](CC(N)=O)NC(=O)c1ccc2ccccc2n1 [Saquinavir] | 25 ± 11.4 | 12.3 ± 5.02 | – | – | 20.7 ± 7.67 | – | – | 12.3 ± 5.44 | – |
| CCCc1nc2c(C)cc(-c3nc4ccccc4n3C)cc2n1Cc1ccc(-c2ccccc2C(=O)O)cc1 [Telmisartan] | 11.6 ± 3.91 | 2.72 ± 1.26 | 2600 ± 1590 | 2280 ± 970 | 1.55 ± 0.53 | 15.2 ± 5.66 | 1.81 ± 0.87 | 4.06 ± 1.69 | efflux ratio at 120 min, 1 µM (mouse Mdr1a [4]): 2.2 ± 0.27; efflux ratio at 120 min, 1 µM (cynomolgus monkey Mdr1 [5]): 3.18 ± 0.63; efflux ratio at 120 min, 1 µM [8]: 0.38 ± 0.06; efflux ratio at 120 min, 1 µM (human BCRP): 12.2 ± 0.95; efflux ratio at 120 min, 1 µM (rat Mdr1a [10]): 2.65 ± 0.75 |
| Cc1ccccc1C(=O)Nc1ccc(C(=O)N2CCCC(O)c3cc(Cl)ccc32)c(C)c1 (stereo not drawn) [Tolvaptan] | 8.79 ± 2.81 | 4.14 ± 1.47 | 10900 ± 1460 | 3920 ± 870 | 5.11 ± 1.65 | > 30 | 1.28 ± 0.44 | 6.68 ± 1.63 | – |
| CC[C@]1(O)C[C@@H]2CN(CCc3c([nH]c4ccccc34)[C@@](C(=O)OC)(c3cc4c(cc3OC)N(C)[C@H]3[C@@](O)(C(=O)OC)[C@H](OC(C)=O)[C@]5(CC)C=CCN6CC[C@]43[C@@H]65)C2)C1 [Vinblastine] | – | – | – | – | – | – | – | – | efflux ratio at 120 min, 1 µM (human MDR1 [1]): 51.6 ± 5.3; efflux ratio at 120 min, 1 µM (mouse Mdr1a [4]): 50.5 ± 6.89; efflux ratio at 120 min, 1 µM (cynomolgus monkey Mdr1 [5]): 61.4 ± 7.47; efflux ratio at 120 min, 1 µM [8]: 1.32 ± 0.28; efflux ratio at 120 min, 1 µM (human BCRP): 22.9 ± 4.47; efflux ratio at 120 min, 1 µM (rat Mdr1a [10]): 61.2 ± 5.31 |
| CN(C)CCc1c[nH]c2ccc(C[C@H]3COC(=O)N3)cc12 [Zolmitriptan] | – | – | – | – | – | – | – | – | efflux ratio at 120 min, 1 µM (human MDR1 [1]): 4.3 ± 0.26; efflux ratio at 120 min, 1 µM (mouse Mdr1a [4]): 1.99 ± 0.16; efflux ratio at 120 min, 1 µM (cynomolgus monkey Mdr1 [5]): 2.24 ± 0.22; efflux ratio at 120 min, 1 µM [8]: 0.97 ± 0.09; efflux ratio at 120 min, 1 µM (human BCRP): 3.94 ± 0.25; efflux ratio at 120 min, 1 µM (rat Mdr1a [10]): 2.69 ± 0.16 |
| O[C@@H](COc1cccc2ncccc12)CN1CCN([C@@H]2c3ccccc3[C@@H]3[C@H](c4ccccc42)C3(F)F)CC1 [Zosuquidar] | 0.6 ± 0.29 | 0.57 ± 0.21 | 370 ± 130 | 490 ± 260 | 0.12 ± 0.09 | – | – | 0.05 ± 0.02 | – |
| CC(C)(C)NCC(O)COc1ccc(NC(=O)NC2CCCCC2)cc1 (stereo not drawn) [talinolol] | – | – | – | – | – | – | – | – | Inhibition of digoxin transport IC50±SD, rMDR1 (rat Mdr1a [2]; probe 3H-digoxin 1 µM, 120 min): no inhibition; Inhibition of quinidine transport IC50±SD, rMDR1 (rat Mdr1a [2]; probe 3H-quinidine 1 µM, 30 min): no inhibition; Inhibition of digoxin transport IC50±SD, mMDR1 (mouse Mdr1a [3]; probe 3H-digoxin 1 µM, 120 min): no inhibition; Inhibition of quinidine transport IC50±SD, mMDR1 (mouse Mdr1a [3]; [17]): no inhibition; Inhibition of quinidine transport IC50±SD, cyMDR1 (cynomolgus monkey Mdr1 [6]; probe 3H-quinidine 0.1 µM): no inhibition; Inhibition of digoxin transport IC50±SD, hMDR1 (human MDR1 [7]; probe 3H-digoxin 1 µM, 120 min): no inhibition; Inhibition of quinidine transport IC50±SD, hMDR1 (human MDR1 [7]; [17]): no inhibition |
